The values that follow come from publication PMC13500670, “The U1 snRNP protein U1C and Helix H of U1 snRNA are critical for small molecule splicing modulator function” (Nature Communications, 2026).

Each structure is given as a SMILES string.

Test [1] concerns splicing events in human SH-SY5Y cells. The note with it: 24 nM (approximately 2 times the IC50 for HTT), 24 h; cited from earlier work.
Test [2] concerns c12orf4 iExon 1a, DENND4A, SCO1, DPH1 iExon inclusion. Nature of the test: End-point RT-PCR of iExon inclusion, scr control versus U1C KD. Format: cell-based, human. Conditions: c12orf4 iExon 1a and DENND4A; 3uM, 1uM, 250nm, 100nM. The method, then:
A total of 500,000 SH-SY5Y cells were plated in 6-well tissue culture plates. After 4 h of recovery, cells were transfected with final 100 nM siRNA (silencer select s13212 or negative control No.2 from Ambion) using Lipofectamin RNAi Max (ThermoFisher) according to the manufacturer’s protocol. After 24 h incubation, cells were treated with splicing modulating compounds for additional 24 h. Cells were lysed in RLT buffer ( + beta-mercaptoethanol) and RNA was extracted using the RNeasy kit (Qiagen) according to the manufacturer’s protocol.
Knockdown was confirmed by RT-qPCR using TaqMan assays (Hs00863364_gH, Hs02758991_g1, from ThermoFisher). Splicing changes were confirmed by endpoint PCR using the primer sets listed in Supplementary Table 1. Relative amounts of U1C RNA were calculated for control knockdown vs. U1C knockdown (normalized to GAPDH expression level).
HEK293 cells were transfected for siRNA in 6-well plates, similarly as for RNA-sequencing above. […] Overexpression of 1.5 μg pMEV-2HA-EV or pMEV-U1C-2HA was carried out with Lipofectamine3000 (L3000008) 6 h later. RNA was harvested 24 h later, extracted as above, and reverse transcribed with a Qiagen QuantiTect RT kit (205311). […]

Test [3] deals with U1 snRNA nucleotide 1-16 + artificial HTT 5' ss oligo. In words: FP: U1 snRNA nucleotide 1-16 + artificial HTT 5' ss oligo with -1A bulge (Supplementary Fig. 5F). Format: binding, human. The method, then:
(§1) To ensure the presence of a −1A bulge in the RNA duplex, we extended the U1 snRNA to nucleotide 1–16 and generated an artificial HTT 5′ ss oligo that added 4 additional nucleotides upstream of the −4C nucleotide to ensure stable base pairing upstream of the potential −1A bulge.
(§2) All of 5′-FAM labeled RNA oligos used in this study were synthesized and purified by IDT (USA). Fluorescence polarization (FP) assays were performed in binding buffer (20 mM HEPES pH 7.5, 1 mM MgCl2, 200 mM KCl, 0.01% TritonX-100, 0.1%PEG3350, 2%DMSO) at room temperature using a Envision HTS Plate Reader system (Revvity). […] The equilibrium dissociation constants (Kd) of binding reaction were calculated using the following single-site binding model formula in GraphPad Prism: y=START+(END−START)x/kD+x where x and y represent the concentration of U1 snRNP (or U1 snRNA) and the polarization value measured respectively, START represents the polarization value of protein-free nucleic acid probe, END represents the maximum polarization value when U1 snRNP (or U1 snRNA) binds to the fluorescently labeled 5′ ss oligo. […]

The target of test [4] is T1, native U1 snRNP + HTT 5' ss oligo (Homo sapiens, UniProt P09234).
T1 construct: we added a large excess of full-length U1C (800 nM) expressed in and purified from E. coli; endogenous in cells; host or cells: HeLa-S3 with CRISPR knock-in of a C-terminal HTP tag on U1A; the added U1C came from E. coli
Nature of the test: FP: native U1 snRNP binding to HTT 5' ss oligo. Conditions: Fig. 1C; 10 μM branaplam. The method, then:
We engineered a protein A-tag on U1A in HeLa cells using CRISPR-Cas9 and purified native U1 snRNP using the protein A tag and IgG resin (Supplementary Fig. 1A). […] Since U1C is weakly associated with U1 snRNP and may fall off at low U1 snRNP concentrations, we added a large excess of full-length U1C (800 nM) expressed in and purified from E. coli in all binding reactions unless otherwise stated.
U1A-HTP cells were adapted to grow in suspension in Joklik’s MEM (Sigma) supplemented with 5% (v/v) newborn calf serum and 1× Pluronic™ F-68 (Gibco). […]
as §2

The subject of test [5] is 5' end of U1 snRNA + HTT 5' ss oligo with -1A deleted. In words: FP: 5' end of U1 snRNA + HTT 5' ss oligo with -1A deleted (Supplementary Fig. 5D). Format: binding, human. The method, then: as §1, §2

For `CC1(C)CC(Oc2ccc(-c3ccc(-c4cn[nH]c4)cc3O)nn2)CC(C)(C)N1` [Branaplam, branaplam], in test [1], the “number of splicing events affected” value is recorded as 165. Further, the “effect of U1C knockdown on compound potency by end-point PCR” value in test [2] is “reduces”. The “effect of compound on binding affinity” value in test [3] was “no effect”. In addition, the “increase of binding affinity by compound versus DMSO” value in test [4] was “about twofold”. In test [5], the “effect of compound on binding” value was “not improved”.
